Data reported in patent US20070191333A1, “Antibacterial agents” (Warner Lambert Company LLC, priority 2003, published 2007).
Values after ≈ are worked out from the molar mass of the structure shown. Read-outs that look alike come from different tables or passages of the source.

Columns and labels:
Type in all cases: cell-based
S pyogenes C203 = test: Antibacterial microtitration MIC, S pyogenes C203; conditions: Gram Positive Bacteria, strain C203; for MIC: read-out: Minimum Inhibitory Concentrations S pyogenes C203
Protocol: (§1) Test A—Antibacterial Assays The compounds of the present invention were tested against an assortment of Gram-negative and Gram-positive organisms using standard microtitration techniques (Cohen et. al., Antimicrob., 1985; 28:766; Heifetz, et. al., Antimicrob., 1974; 6:124).

S. aureus UC-76 = test: Antibacterial microtitration MIC, S. aureus UC-76; conditions: strain UC-76; for MIC: Staphylococcus aureus, UC76, Gram Positive Bacteria, read-out: Minimum Inhibitory Concentrations S. aureus UC-76
Protocol: as §1

S. pneumo SV-1 = test: Antibacterial microtitration MIC, S. pneumo SV-1; conditions: Gram Positive Bacteria, strain SV-1; for MIC: read-out: Minimum Inhibitory Concentrations S. pneumo SV-1
Protocol: as §1

E. faecalis MGH-2 = test: Antibacterial microtitration MIC, E. faecalis MGH-2; conditions: strain MGH-2; for MIC: Enterococcus faecalis, MGH2, Gram Positive Bacteria, read-out: Minimum Inhibitory Concentrations E. faecalis MGH-2
Protocol: as §1

H. influenzae HI-3542 = test: Antibacterial microtitration MIC, H. influenzae HI-3542; conditions: strain HI-3542; for MIC: Haemophilus influenzae, HI3542, Gram Negative Bacteria, read-out: Minimum Inhibitory Concentrations H. influenzae HI-3542
Protocol: as §1

M. catarrhalis BC-3531 = test: Antibacterial microtitration MIC, M. catarrhalis BC-3531; conditions: strain BC-3531; for MIC: Moraxella catarrhalis, BC3531, Gram Negative Bacteria, read-out: Minimum Inhibitory Concentrations M. catarrhalis BC-3531; for Minimum Inhibitory Concentrations M. catarrhalis BC-3531: Gram Negative Bacteria
Protocol: as §1

E. coli 2026 = test: Antibacterial microtitration MIC, E. coli 2026; conditions: strain 2026; for MIC: read-out: Minimum Inhibitory Concentrations E. coli 2026
Protocol: as §1

[1] = Escherichia coli, Gram Negative Bacteria
[2] = Escherichia coli, 2026, Gram Negative Bacteria

| SMILES | MIC (S pyogenes C203) | MIC (S. aureus UC-76) | MIC (S. pneumo SV-1) | MIC (E. faecalis MGH-2) | MIC (H. influenzae HI-3542) | MIC (M. catarrhalis BC-3531) | further results |
| --- | --- | --- | --- | --- | --- | --- | --- |
| COc1c(N2CC[C@@H]([C@H](C)NCCC#N)C2)c(F)cc2c(=O)[nH]c(=O)n(C3CC3)c12 (single isomer, unassigned) [drawing 418] | 0.5 µg/mL (≈ 1.2 µM) | 1 µg/mL (≈ 2.41 µM) | 0.25 µg/mL (≈ 0.602 µM) | 2 µg/mL (≈ 4.81 µM) |  |  |  |
| Cc1c(N2C[C@@H](CNCCC#N)[C@H](C)C2)c(F)cc2c(=O)n(N)c(=O)n(C3CC3)c12 (stereo in doubt) |  |  |  |  | 2 µg/mL (≈ 4.83 µM) | 4 µg/mL (≈ 9.65 µM) | MIC (E. coli 2026; [1]): 8 µg/mL (≈ 19.3 µM) |
| Cc1c(N2C[C@H](CNCCC#N)[C@@H](C)C2)c(F)cc2c(=O)n(N)c(=O)n(C3CC3)c12 (stereo in doubt) |  |  |  |  | 4 µg/mL (≈ 9.65 µM) | 4 µg/mL (≈ 9.65 µM) | MIC (E. coli 2026; [1]): 8 µg/mL (≈ 19.3 µM) |
| Cc1c(N2CCC(C(N)CC#N)C2)c(F)cc2c(=O)n(N)c(=O)n(C3CC3)c12 (centres unmarked) [drawing 388] |  |  |  |  | 2 µg/mL (≈ 5.18 µM) | 0.5 µg/mL (≈ 1.29 µM) | MIC (E. coli 2026; [2]): 8 µg/mL (≈ 20.7 µM) |
| COc1c(N2CCC(C(N)CC#N)C2)c(F)cc2c(=O)n(N)c(=O)n(C3CC3)c12 (centres unmarked) [drawing 393] |  |  |  |  | 8 µg/mL (≈ 19.9 µM) | 16 µg/mL (≈ 39.8 µM) | MIC (E. coli 2026; [2]): 64 µg/mL (≈ 159 µM) |
| COc1c(N2C[C@@H]3CCC(NCCC#N)[C@@H]3C2)c(F)cc2c(=O)n(N)c(=O)n(C3CC3)c12 (some centres unmarked) [drawing 398] |  |  |  |  | 8 µg/mL (≈ 18.1 µM) | 64 µg/mL (≈ 145 µM) | MIC (E. coli 2026; [1]): 64 µg/mL (≈ 145 µM) |
| Cc1c(N2CC[C@@H](C(NCCC#N)c3ncco3)C2)c(F)cc2c(=O)n(N)c(=O)n(C3CC3)c12 (some centres unmarked) [drawing 399] |  |  |  |  | 4 µg/mL (≈ 8.56 µM) | 16 µg/mL (≈ 34.2 µM) | MIC (E. coli 2026; [1]): 16 µg/mL (≈ 34.2 µM) |
| Cc1c(N2CCC(C(N)C(C)(C)C#N)C2)c(F)cc2c(=O)n(N)c(=O)n(C3CC3)c12 (centres unmarked) [drawing 402] |  |  |  |  | 32 µg/mL (≈ 77.2 µM) |  | Minimum Inhibitory Concentrations M. catarrhalis BC-3531 (M. catarrhalis BC-3531): 5.25 µg/mL; MIC (E. coli 2026; [2]): 64 µg/mL (≈ 154 µM) |
| Cc1c(N2CCC(C(N)C(C)(C)C#N)C2)c(F)cc2c(=O)n(N)c(=O)n(C3CC3)c12 (centres unmarked) [drawing 403] |  |  |  |  |  |  | Minimum Inhibitory Concentrations H. influenzae HI-3542 (H. influenzae HI-3542; Gram Negative Bacteria): 32 µg/mL; Minimum Inhibitory Concentrations M. catarrhalis BC-3531 (M. catarrhalis BC-3531): 16 µg/mL; Minimum Inhibitory Concentrations E. coli 2026 (E. coli 2026; Gram Negative Bacteria): 64 µg/mL |
| COc1c(N2CC(CNCCC#N)C3(CC3)C2)c(F)cc2c(=O)n(N)c(=O)n(C3CC3)c12 (centres unmarked) [drawing 404] |  |  |  |  | 1 µg/mL (≈ 2.26 µM) | 8 µg/mL (≈ 18.1 µM) | MIC (E. coli 2026; [2]): 2 µg/mL (≈ 4.52 µM) |
| Cc1c(N2CCC(C(N)CC#N)C2)c(F)cc2c(=O)n(N)c(=O)n(C3CC3)c12 (centres unmarked) [drawing 405] | 0.125 µg/mL (≈ 0.323 µM) | 0.25 µg/mL (≈ 0.647 µM) | 0.125 µg/mL (≈ 0.323 µM) | 0.5 µg/mL (≈ 1.29 µM) |  |  |  |
| COc1c(N2CCC(C(N)CC#N)C2)c(F)cc2c(=O)n(N)c(=O)n(C3CC3)c12 (centres unmarked) [drawing 410] | 0.5 µg/mL (≈ 1.24 µM) | 2 µg/mL (≈ 4.97 µM) | 0.5 µg/mL (≈ 1.24 µM) | 2 µg/mL (≈ 4.97 µM) |  |  |  |
| COc1c(N2C[C@@H]3CCC(NCCC#N)[C@@H]3C2)c(F)cc2c(=O)n(N)c(=O)n(C3CC3)c12 (some centres unmarked) [drawing 415] | 1 µg/mL (≈ 2.26 µM) | 1 µg/mL (≈ 2.26 µM) | 0.5 µg/mL (≈ 1.13 µM) | 4 µg/mL (≈ 9.04 µM) |  |  |  |
| Cc1c(N2CC[C@@H](C(NCCC#N)c3ncco3)C2)c(F)cc2c(=O)n(N)c(=O)n(C3CC3)c12 (some centres unmarked) [drawing 416] | 8 µg/mL (≈ 17.1 µM) | 8 µg/mL (≈ 17.1 µM) | 8 µg/mL (≈ 17.1 µM) | 32 µg/mL (≈ 68.4 µM) |  |  |  |
| Cc1c(N2CCC(C(N)C(C)(C)C#N)C2)c(F)cc2c(=O)n(N)c(=O)n(C3CC3)c12 (centres unmarked) [drawing 419] | 32 µg/mL (≈ 77.2 µM) | 12 µg/mL (≈ 29 µM) |  | 32 µg/mL (≈ 77.2 µM) |  |  | Minimum Inhibitory Concentrations S. pneumo SV-1 (S. pneumo SV-1): 32 µg/mL |
| Cc1c(N2CCC(C(N)C(C)(C)C#N)C2)c(F)cc2c(=O)n(N)c(=O)n(C3CC3)c12 (centres unmarked) [drawing 420] |  |  |  |  |  |  | Minimum Inhibitory Concentrations S pyogenes C203 (S pyogenes C203): 16 µg/mL; Minimum Inhibitory Concentrations S. aureus UC-76 (S. aureus UC-76; Gram Positive Bacteria): 8 µg/mL; Minimum Inhibitory Concentrations S. pneumo SV-1 (S. pneumo SV-1): 8 µg/mL; Minimum Inhibitory Concentrations E. faecalis MGH-2 (E. faecalis MGH-2; Gram Positive Bacteria): 16 µg/mL |
| COc1c(N2CC(CNCCC#N)C3(CC3)C2)c(F)cc2c(=O)n(N)c(=O)n(C3CC3)c12 (centres unmarked) [drawing 421] | 0.06 µg/mL (≈ 0.136 µM) | 0.25 µg/mL (≈ 0.565 µM) | 0.06 µg/mL (≈ 0.136 µM) | 1 µg/mL (≈ 2.26 µM) |  |  |  |
